This note sets out measurements from PMC8765781, “A platform of assays for the discovery of anti-Zika small-molecules with activity in a 3D-bioprinted outer-blood-retina model” (PLoS ONE, 2022).

The test system of series [1] is DENV (Dengue virus type 2, strain New Guinea C).
The subject of series [2] is YFV (YFV 17D).
Series [3] concerns WNV (Kern515/WN02).
Series [4] deals with ZIKV.
The subject of series [5] is ZIKV-mCherry (Cambodian strain FSS13025). Description: microbe, parasite or virus in culture. The class given is cell-based, Zika virus.
Series [6] relates to ZIKV-RLuc (Cambodian strain FSS13025). Description: microbe, parasite or virus in culture. The class given is cell-based, Zika virus. To be noted: for pIC50: read-out: Rluc-ZIKV (ZIKV Antiviral Assays), IC50.
Series [7] concerns wild-type ZIKV (Ugandan MR766 strain) in Vero cells. Description: ZIKV cytopathic effect (CPE) inhibition qHTS assay, CellTiter-Glo readout. It counts as cell-based, Zika virus. To be noted: for pIC50: read-out: ZIKV-infection (CPE, ZIKV Antiviral Assays), IC50. On the technique in general: Cytopathic effects are the visible damage that an infection or toxin causes in cultured cells.

The test system of series [8] is caspase-3 activity induced by ZIKV in Vero cells. The experiment in a line: cells. The class given is cell-based. The following applies: read-out: Caspase 3 (ZIKV Antiviral Assays), IC50.
Series [9] is described as follows: in vitro. To be noted: African green monkey.
Series [10] can be described thus: in vitro. The following applies: human.
In series [11] the test system is mCherry-ZIKV in human neuronal progenitor cells. The experiment in a line: microbe, parasite or virus in culture. It counts as cell-based, Zika virus.
Series [12] concerns Vero cells.
Where [13] appears, read: Zika virus, Vero, read-out: Log AC50 (M) (converted).
Where [14] appears, read: Zika virus, Vero, from Hill fit of the response curve, 50% of maximum activity response, 194 cherry-picked compounds, protocol name not given, read-out: AC50.
Where [15] appears, read: Zika virus, Vero, potency in log units (Molar) from Hill fit of the response curve, 194 cherry-picked compounds, protocol name not given, read-out: Log AC50 (converted).
The mark [16] stands for this setting: Zika virus, Vero cells, wild-type ZIKV MOI 1, 48 hr, unit inferred.
[17] abbreviates: difference between neutral response and maximum compound response.
Setting [18] is: Zika virus, ZIKV-infected Vero cells, 48 hr, unit inferred.

pIC50: −log10 of the molar value. Read-outs that look alike come from different tables or passages of the source. Some results are limits rather than exact numbers.

Take `CCN(CC)CCCC(C)Nc1ccnc2cc(Cl)ccc12` (centres unmarked) [NCGC00015256, chloroquine, reference compound]: in [1], the “DENV active Yes/No” value is “No”. For the same compound, in series [2], the “SI value YFV (CC50/EC50)” value amounted to 1.2 and the “YFV active Yes/No” value is given as “No”. Besides, the “WHV active Yes/No” value in [3] is “No”. Also, the “ZIKV active Yes/No” value in series [4] was “No”.

Broadly, the AC50 is the concentration giving half of the maximal activity seen. Usually pIC50 stands for the IC50 on a negative log10 scale, so that one unit is a factor of ten. Regarding `O=C(O)Cc1cc(I)c(Oc2ccc(O)c(I)c2)c(I)c1` [NCGC00016227-08], the “CC-v2 (curve class of the dose response curve)” value in series [5] was -1.3. Moreover, the “Efficacy (difference between neutral response and maximum compound response)” value in [5] is given as -57.778. For the same compound, the “Max Resp (difference between neutral response and response at highest compound concentration)” value in series [5] is -100.305. For the same compound, the AC50 in series [5] (Zika virus, Vero) was 1.5e-05 M; in [5] (setting [13]) it was 1.5e-05 M; in series [7] (Zika virus, Vero) it was 2.91e-05 M; in [7] (setting [13]) it was 2.91e-05 M. Also, the pIC50 in series [6] (Zika virus, Vero, 48 h) was 4.63; in series [7] (Zika virus, Vero, 48 h), 4.54; in series [8] (Zika virus, Vero, 48 h) it was less than 4.32. This compound came in with an Efficacy in [7] of -29.653. In addition, the CC50 at 48 h in series [9] is greater than 50 µM. In series [10], the CC50 was greater than 30 µM.

For the compound `CS[C@H]1SC[C@@H]2C(=O)N(C)[C@H](C(C)C)C(=O)OC[C@H](NC(=O)c3cnc4ccccc4n3)C(=O)N[C@H](C)C(=O)N(C)[C@H]1C(=O)N(C)[C@H](C(C)C)C(=O)OC[C@H](NC(=O)c1cnc3ccccc3n1)C(=O)N[C@H](C)C(=O)N2C` [NCGC00163548-03], in series [1], the “DENV active Yes/No” value was “No”. In [5], the “CC-v2 (curve class of the dose response curve)” value is recorded as -1.1; the “Efficacy (difference between neutral response and maximum compound response)” value is -108.47; the “Max Resp (difference between neutral response and response at highest compound concentration)” value is reported as -100.29. For the same compound, the AC50 in series [5] (Zika virus, Vero) is 2.99e-09 M. For the same compound, the AC50 in series [5] (setting [13]) was 2.99e-09 M. For the same compound, the “Antiviral activity in human NPC” value in series [11] is listed as “moderate antiviral activity”. Further, the “YFV active Yes/No” value in [2] is given as “No”. In addition, the “WHV active Yes/No” value in series [3] is “No”. Also, the “ZIKV active Yes/No” value in [4] was “No”.

For `Cc1ccc2c(c1)Cc1c(C(=O)NN3CCCCC3)nn(-c3ccc(Cl)cc3Cl)c1-2` [NCGC00167846-01], in series [1], the “Activity against DENV” value was “active against both DENV and ZIKV”; the “DENV active Yes/No” value is recorded as “Yes”; the “SI value DENV (CC50/EC50)” value is listed as 16. For the same compound, in [5], the “CC-v2 (curve class of the dose response curve)” value is recorded as -1.3; the “Efficacy (difference between neutral response and maximum compound response)” value is reported as -70.543; the “Max Resp (difference between neutral response and response at highest compound concentration)” value is reported as -100.29. Moreover, half-maximal activity in [5] (Zika virus, Vero) (AC50) was put at 6.7e-07 M. For the same compound, the half-maximal activity concentration (AC50) in series [5] (setting [13]) was 6.7e-07 M. Also, in series [6], the “CC-v2 (curve class classification v2 of the dose response curve)” value is on record as -1.1; the “Efficacy (difference between neutral response and maximum compound response)” value is -95.949; the “Max Resp (difference between neutral response and compound response for highest compound concentration)” value was -99.943. The AC50 in series [6] (Zika virus, Vero) is 4.14e-06 M. Besides, in series [6] (setting [13]), the AC50 was 4.14e-06 M. In [12], half-maximal activity (AC50) was put at 4.14 µM and the “Log AC50 (M)” value is listed as -5.3827 M. For the same compound, in [11], the “Antiviral activity in human NPC” value is “effectively inhibited ZIKV in NPC cells”, the Efficacy is on record as -97.35 and the “Max Resp” value is reported as -80.167. Half-maximal activity in [11] (Zika virus, Neuronal progenitor cell) (AC50) was put at 3.98e-05 M. Also, the half-maximal activity concentration (AC50) in series [11] (Zika virus, Neuronal progenitor cell, read-out: Log AC50 (M) (converted)) was 3.98e-05 M. The “YFV active Yes/No” value in [2] is reported as “No”. Moreover, in [3], the “WHV active Yes/No” value is “No”. Further, in [4], the “Activity against ZIKV” value is “active against both DENV and ZIKV”; the “SI value ZIKV (CC50/EC50)” value is recorded as 31; the “ZIKV active Yes/No” value is recorded as “Yes”.

On to `CCC(C)C1NC(=O)C(C(C)=O)=C1O` (centres unmarked) [NCGC00168879-02], for which the “CC-v2 (curve class of the dose response curve)” value in series [5] is -1.2. Moreover, in series [5], the “Efficacy (difference between neutral response and maximum compound response)” value is -63.104. Besides, the “Max Resp (difference between neutral response and response at highest compound concentration)” value in series [5] is -99.611. Besides, the AC50 was 2.17e-05 M in series [5] (Zika virus, Vero); 2.17e-05 M in series [5] (setting [13]); 2.11e-05 M in series [7] (Zika virus, Vero); 2.11e-05 M in series [7] (setting [13]). The pIC50 in series [6] (Zika virus, Vero, 48 h) was 4.92; in series [7] (Zika virus, Vero, 48 h) it was 4.68; in series [8] (Zika virus, Vero, 48 h) it was 5.42. For the same compound, the “CC-v2 (curve class classification of the dose response curve)” value in [7] was -1.2. In addition, the Efficacy in series [7] was -73.15. Moreover, the figures for the CC50 in series [9] and in [10] were greater than 50 µM and greater than 30 µM, respectively.

As for `COc1c(C(C)C)cc2c(c1O)[C@@]1(C(=O)O)CCCC(C)(C)C1CC2` (some centres unmarked) [NCGC00169945-03], the “CC-v2 (curve class of the dose response curve)” value in series [5] was -2.3. The “Efficacy (difference between neutral response and maximum compound response)” value in series [5] is -78.993. In series [5], the “Max Resp (difference between neutral response and response at highest compound concentration)” value is listed as -100.305. Besides, the AC50 in [5] (Zika virus, Vero) is 1.47e-05 M; in series [5] (setting [13]) it was 1.47e-05 M; in [7] (setting [14]), 1.43e-05 M; in [7] (setting [15]) it was 1.43e-05 M. Also, the pIC50 in [6] (Zika virus, Vero, 48 h) was 4.79; in series [7] (setting [16]), 4.84; in series [8] (setting [18]) it was 4.69. The Efficacy in series [7] (setting [17]) was -27.847. Further, in series [9], the CC50 at 48 h was greater than 50 µM. Moreover, the CC50 in [10] amounted to 12.5 µM.

Regarding `CC1=C[C@H]2O[C@@H]3[C@H](O)C[C@](C)([C@@]2(CO)[C@H](O)C1=O)[C@]31CO1` [NCGC00180572-02, vomitoxin], the “DENV active Yes/No” value in series [1] was “Yes”. In addition, the “CC-v2 (curve class of the dose response curve)” value in [5] is listed as -1.1. The “Efficacy (difference between neutral response and maximum compound response)” value in [5] was -87.951. Besides, the results for the “Log AC50 (M)” value in series [5], in [7] and in series [11] were -7.0741 M, -6.2862 M and -5.35 M, respectively. For the same compound, the “Max Resp (difference between neutral response and response at highest compound concentration)” value in [5] was -98.582. Further, the results for the AC50 in [5] (read-out: AC50), in series [7] (read-out: AC50) and in [11] (read-out: AC50) were 8.43e-08 M, 5.17e-07 M and 4.47e-06 M, respectively. Besides, the pIC50 is 6.13 in series [6]; 6.28 in series [7]; 5.36 in series [11] (read-out: IC50 in NPC); 5.35 in [11] (read-out: NPC (ZIKV Antiviral Assays), IC50); 6.13 in series [8]. The Efficacy is recorded as -38.561 in [7] and -97.398 in series [11]. Besides, the “Max Resp” value is recorded as -28.893 in series [7] and -88.056 in series [11]. The “CC-v2 (curve class)” value in series [11] was -1.1. The “YFV active Yes/No” value in [2] is “Yes”. For the same compound, the “WHV active Yes/No” value in series [3] is “Yes”. Moreover, the “ZIKV active Yes/No” value in series [4] is listed as “Yes”.

Take `CCC/C=C/C(=O)O[C@H]1CC(C)(C)CC2[C@@]13[C@H](O)C[C@]1(C)[C@@]2(CCC2[C@@]4(C)CC[C@H](O[C@@H]5O[C@H](C(=O)O)[C@@H](O)[C@H](O[C@@H]6O[C@H](CO)[C@H](O)[C@H](O)[C@H]6O[C@@H]6O[C@@H](C)[C@H](O)[C@@H](O)[C@H]6O[C@@H]6OC[C@](O)(CO)[C@H]6O)[C@H]5O[C@@H]5O[C@H](CO)[C@H](O)[C@H](O)[C@H]5O)C(C)(C)C4CC[C@]21C)O[C@H]3O` (some centres unmarked) [NCGC00385970-01]: the “CC-v2 (curve class of the dose response curve)” value in [5] is listed as -1.3. Further, in [5], the “Efficacy (difference between neutral response and maximum compound response)” value is -68.04. Further, the “Max Resp (difference between neutral response and response at highest compound concentration)” value in [5] was -100.305. Besides, the half-maximal activity concentration (AC50) in series [5] (Zika virus, Vero) is 2.53e-06 M; in series [5] (setting [13]), 2.53e-06 M; in [7] (setting [14]) it was 3.09e-06 M; in [7] (setting [15]), 3.09e-06 M. In addition, the pIC50 in series [6] (Zika virus, Vero, 48 h) was 5.65; in series [7] (setting [16]), 5.51; in [8] (setting [18]), 6.30. Besides, in series [7] (curve class v2 (Inglese et al. 2006)), the “CC-v2 (curve class classification of the dose response curve)” value is recorded as -1.2. In series [7] (setting [17]), the Efficacy is -40.513. This compound also gave a CC50 in [9] greater than 50 µM.
